Patent publication US10004222B2, “Small molecule ice recrystallization inhibitors and methods of use thereof” (THE UNIVERSITY OF OTTAWA, priority 2012, dated 2018)

How the values were obtained:
[1] = test system: CD34+ cells (hematopoietic stem cells); assay: colony forming unit (CFU) assay after cryopreservation of umbilical cord blood; type: cell-based, human; conditions: 27.5 mM IRI, 10% DMSO; post-thaw, 14 days in Methocult
[2] = test system: CD34+ cells (hematopoietic stem cells); assay: post-thaw viability of CD34+ cells of cryopreserved umbilical cord blood, flow cytometry; type: cell-based, human; conditions: for Post-Thaw Viab.: UCB Unit 27; for CD34+ cell viability compared with control: vs control that contained 10% DMSO only
Experimental: Whole umbilical cord blood (UCB) should be stored at room temperature (15-25° C.) and processed within 48 hrs of collection. UCB is removed from collection bag and spilt in equal parts into 50 mL Falcon tubes. No more than 25 mL of UCB should be added per Falcon tube. UCB is diluted with 6% hetastarch (Hespan) to obtain a final concentration of 1% hetastarch and incubated for 10 minutes at room temperature. The tubes are then centrifuged at 50 g at 10° C. for 15-20 minutes, depending on volume. The centrifuge should not brake to stop. For total volumes of 30 mL, 15-17 minute centrifugation is utilized and for total volumes of 35 mL, 17-20 minute centrifugation is utilized. The supernatant and buffy coat (plasma and leukocytes) are removed carefully (not collecting RBCs) from the tubes and collected into new 50 mL Falcon tubes. These tubes are centrifuged at 400 g and 10° C. for 10 mins to pellet cells. The centrifuge brake can now be utilized. Plasma is removed and kept in new 50 mL Falcon tubes on ice. The cell pellets resuspended and combined in plasma to a total volume of 20 mL to generate leukocyte concentrate (LC). The LC is kept on ice for the duration of its use. Total mononuclear (CD45^+) and CD34^+ (hematopoetic stem cells) cell concentrations and viability are determined by flow cytometry (see Flow Cytometry procedure below). Aliquots of LC (50,000 CD34^+ cells) are utilized for cryopreservation experiments (see Cryopreservation Experiments procedure below).
Aliquots of LC (50,000 CD34^+ cells) are added to 2.0 mL cryovials. For each experiment, four cryovials are prepared (two for post-thaw viability analysis using flow cytometry and two for functionality analysis using the colony forming unit assay). Cryovials are kept on ice until placement in −80° C. freezer. Cryovials are centrifuged at 400 g and 10° C. for 5 minutes to pellet cells. After centrifugation, the time taken until placement in −80° C. freezer should not exceed 10 minutes. Supernatant is removed by aspiration or by decanting, but preferably by aspiration. Plasma (volume depends on desired cryosolution concentration) is added and cells are suspended by pipetting. Pre-made cryosolutions (see Cryosolutions) are added (volume depends on desired cryosolution concentration) and mixed by pipetting. Cryovials are placed in a Mr. Frosty® rate controlled freezing container which is then placed in a −80° C. freezer for 24 hours. By placing the cryovials in the freezing container, their contents undergo a cooling rate of about −1° C. per minute. After 24 hours, the cryovials are transferred to a liquid nitrogen dewar for storage until thawed for analysis.
Cryosolutions are prepared in distilled autoclaved water supplemented with 0.9% saline and 5% dextran for cryopreservation experiments and diluted with different volumes of plasma in cryovials depending on desired concentration of ice recrystallization inhibitor. N-(4-chlorophenyl)-D-gluconamide (4a) and N-(2-fluorophenyl)-D-gluconamide (2a) are prepared at 25 mM and N-(4-methoxyphenyl)-D-gluconamide (3a) and N-(2,6-difluorobenzyl)-D-gluconamide (1b) are prepared at 55 mM. 100, 50, 33 or 20 μL of 25 mM N-(4-chlorophenyl)-D-gluconamide (4a) or N-(2-fluorophenyl)-D-gluconamide (2a) are added to cryovials containing 50,000 CD34^+ cells suspended in 0, 50, 67, or 80 μL of plasma, respectively, for a final IRI concentration of 25, 12.5, 8 or 5 mM, respectively. 100, 50, 33 or 20 μL of 55 mM N-(4-methoxyphenyl)-D-gluconamide (3a) or N-(2,6-difluorobenzyl)-D-gluconamide (1b) are added to cryovials containing 50,000 CD34^+ cells suspended in 0, 50, 67, or 80 μL of plasma, respectively, for a final IRI concentration of […], 18 or 11 mM, respectively.
Total mononuclear cell (CD45+) and progenitor cell (CD34+) viability is assessed by flow cytometry using International Society of Hematotherapy and Graft Engineering (ISHAGE) guidelines (J. Hematother. Stem Cell Res. 1996, 5, 213-226). […]

Tf1-α cells = assay: cryopreservation of Tf1-α cells, viability/apoptosis by flow cytometry (7-AAD, Annexin V); type: cell-based; conditions: 55 mM aryl-aldonamide, post-thaw
Experimental: Tf1-α cells were cultured to a final concentration of 2-3×10^6 cells/mL. Three million cells were transferred into cryovials and media were removed by aspiration after centrifugation at 1000 rpm for five minutes. 100 μL of RPMI media (10% FBS) supplemented with the cryopreservative of interest was added to the cryovial and vortexed. The cryovials were cooled at a rate of −1° C./min for 24 hours to −80° C. before being transferred to a liquid nitrogen dewar for storage until analysis.
Cryovials were thawed under fast thaw conditions (submerged in 37° C. water bath). The cells were then diluted to a concentration of 3×10^6 cells/mL with 1× Annexin V Binding Buffer and a cell count was obtained by hemacytometer (to obtain cell recovery). A 400 μL aliquot was transferred to a flow cytommetry tube. 10 μL of each Annexin V FITC (for apoptosis) and 7-AAD (for viability) dyes were added, the tube was vortexed and allowed to incubate in the dark for 15 minutes. The solution was diluted to 1 mL with 1× Annexin V Binding Buffer, vortexed and analyzed by flow cytommetry. […] With 2% DMSO, cell viability reached about 45%, and with 10% DMSO, cell viability reached around 78%.

SMILES | BFU-E [1] | CFU-M [1] | Post-Thaw Viab. ([2]; 11 mM IRI) [%] | CD34+ cell viability compared with control [2] | Apoptosis (%) (Tf1-α cells; 0% DMSO) | Cell Viability (%) (Tf1-α cells; 0% DMSO) | Apoptosis (%) (Tf1-α cells; 2% DMSO) | Cell Viability (%) (Tf1-α cells; 2% DMSO) | Apoptosis (%) (Tf1-α cells; 10% DMSO) | Cell Viability (%) (Tf1-α cells; 10% DMSO) | Post-Thaw Viab. ([2]; 5 mM IRI) [%]
O=C(NCc1c(F)cccc1F)[C@H](O)[C@@H](O)[C@H](O)[C@H](O)CO [(1b), N-(2,6-difluorobenzyl)-D-gluconamide] | 28.5 | 2.0 | 57 | substantially similar to the control |  |  |  |  |  |  | 
O=C(Nc1ccccc1F)[C@H](O)[C@@H](O)[C@H](O)[C@H](O)CO [(2a), N-(2-fluorophenyl)-D-gluconamide] |  |  |  | substantially similar to the control | 0 | 1.27 | 1.5 | 81.28 | 3.37 | 92.83 | 88
COc1ccc(NC(=O)[C@H](O)[C@@H](O)[C@H](O)[C@H](O)CO)cc1 [(3a), N-(4-methoxyphenyl)-D-gluconamide] | 35.0 | 3.5 | 78 | substantially similar to the control | 0 | 0.16 | 1.38 | 74.33 | 2.73 | 95.33 | 
O=C(Nc1ccc(Cl)cc1)[C@H](O)[C@@H](O)[C@H](O)[C@H](O)CO [(4a), N-(4-chlorophenyl)-D-gluconamide] |  |  |  | substantially similar to the control |  |  |  |  |  |  | 88
